Results reported in US20020032214A1, “Pharmaceutical composition comprising a compound having anti-xa activity and a platelet aggregation antagonist compound” (priority 1996, published 2002).

Assay: Template bleeding time in the canine model of unstable angina
Assay type: in vivo, Mongrel dogs
Details: high-dose of the platelet aggregation antagonist compound, i.v., dogs
Protocol: Mongrel dogs of either sex (15-21 kg) are anesthetized with sodium pentobarbital (30 mg/kg, i.v., with supplements given as needed), intubated, and ventilated using a Harvard respirator (Harvard Apparatus. S. Natick, Mass.). A tri-lumen catheter (SAFEDWELLplus, Becton Dickinson, Sandy, Utah) is placed in the right femoral vein for the administration of test agents and supplemental anesthesia. The right femoral artery is cannulated for measurement of arterial blood pressure and for obtaining blood samples.
Thirty dogs are assigned to one of six adjunctive treatment groups. […]
After consistent CFRs are established for at least 20 minutes, compounds are administered as described above and blood flow is monitored during the one hour infusion period. […] Mean arterial blood pressure, heart rate and EKG are recorded for the duration of the protocol (Grass polygraph, Model 7D, Grass Instruments, Mass.).
Template bleeding time measurements are obtained at the same time points as the blood samples, as mentioned previously. Template bleeding time is measured after a uniform incision is made on the mucous membrane of the inner upper lip with a Surgicutt® automated incision device (ITC, Edison, N.J.). […] Template bleeding time is measured from the moment of the incision until the blood no longer stained the blotting paper. […]

**Q.** Which “increase in template bleeding time” value does the source give for `CCCCS(=O)(=O)N[C@@H](Cc1ccc(OCCCCC2CCNCC2)cc1)C(=O)O` [BSPBPA, N-(n-butylsulfonyl)-4-(piperidin-4-ylbutyloxy)-L-phenylalanine] here?
**A.** > 5 fold
